The values below are quoted from earlier work in patent publication US7611733B2, “Nanoparticle formulations of platinum compounds” (priority 2004, dated 2009).

Where a name gives a salt, the structure may show the parent alone.

This series deals with variety of tumor cell lines.

As for `[NH2][Pt+]([NH2])([Cl])[NH]CCCCCC[NH2+]CC[NH2+]CCCCCC[NH][Pt+]([NH2])([NH2])[Cl]` [Formula II, bis{trans(diammine)(chloro)platinum(II)}μ(1,16-diamino-7,10-diazahexadecane-N1,N16) dinitrate salt. 2HNO3], the antitumor activity entry is “outstanding antitumor activity”.
